The values that follow come from patent US20260022142A1, “MACROCYCLIC IMMUNOMODULATORS” (Bristol-Myers Squibb Company, priority 2022, published 2026).

Bridge positions count the residues as written; N and C are the ends. Square brackets hold non-standard residues; d marks the D form. Peptide text beside a SMILES is read from it. * marks the point of attachment. ξ: configuration not given here. Phe(4-CONH2) = NC(=O)c1ccc(C[C@H](N)C(=O)O)cc1; Bip = N[C@@H](Cc1ccc(-c2ccccc2)cc1)C(=O)O; Phe(3-Me) = Cc1cccc(C[C@H](N)C(=O)O)c1; Val(3-OH) = CC(C)(O)[C@H](N)C(=O)O; Cha = N[C@@H](CC1CCCCC1)C(=O)O; Thr(3ξ) = CC(O)[C@H](N)C(=O)O; Carboxymethyl = O=C(O)C*; Orn = NCCC[C@H](N)C(=O)O; Aun = NCCCCCCCCCCC(=O)O; Dab = NCC[C@H](N)C(=O)O; Dap = NC[C@H](N)C(=O)O; AEEA = NCCOCCOCC(=O)O; Piv = CC(C)(C)C(=O)*

For the assay, the target named is T1, PD-1/PD-L1 interaction (PE-labeled human PD-L1-Ig binding to Jurkat cell line over-expressing human PD-1) (Homo sapiens, UniProt Q15116).
T1 construct: expressed in transfected cells; host or cells: Jurkat
T1 sequence (Q15116 25-288): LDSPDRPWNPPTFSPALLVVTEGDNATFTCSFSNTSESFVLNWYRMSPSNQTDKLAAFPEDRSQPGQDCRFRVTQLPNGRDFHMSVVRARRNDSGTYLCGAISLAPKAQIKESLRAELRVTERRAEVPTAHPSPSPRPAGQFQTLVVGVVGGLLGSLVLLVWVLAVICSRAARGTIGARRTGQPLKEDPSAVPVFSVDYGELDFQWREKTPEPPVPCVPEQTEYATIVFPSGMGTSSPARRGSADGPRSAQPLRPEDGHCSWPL
The experiment in a line: Jurkat-PD-1 Cell Binding High-Content Screening Assay (CBA). The assay is classed as cell-based. The note with it: Jurkat cell line over-expressing human PD-1; PE-labeled PD-L1-Ig 20 nM final; read-out: Jurkat hPD1-PDL1 IC50. In outline: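 Human PD-L1-Ig carrying a covalent PE label on its Ig tag serves as the probe, applied at 20 nM final to compound-treated (2 h, 37° C) Jurkat-hPD-1 cells in medium with 10% fetal calf serum. After one hour, fixation and nuclear staining precede high-content image analysis.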
The term IC50 denotes the midpoint of a concentration-inhibition curve. Regarding `CC(C)C[C@@H]1NC(=O)[C@H](Cc2c[nH]c3ccccc23)NC(=O)[C@H](CC(=O)O)NC(=O)[C@H](Cc2ccc(OCC(=O)O)cc2)NC(=O)[C@H](CN)NC(=O)CSC[C@@H](C(=O)N[C@@H](CCN)C(=O)NCCCCCCCCCCC(=O)O)NC(=O)[C@H](CCCN)NC(=O)[C@H](C(C)O)NC(=O)[C@H](CC2CCCCC2)NC(=O)[C@H](CCN)NC(=O)[C@@H](CC(C)C)NC(=O)[C@H](CCCN)NC(=O)[C@H](C(C)C)NC(=O)[C@H](Cc2ccc(-c3ccccc3)cc2)NC1=O` (stereo partly drawn) [Compound 3687] ({CH2CO}-[Dap]Y(Carboxymethyl)DWL[Bip]V[Orn][dL][Dab][Cha][Thr(3ξ)][Orn]C[Dab][Aun]-OH; thioether N-14), the IC50 was determined as 19.9 nM. `CC(C)C[C@@H]1NC(=O)[C@H](Cc2c[nH]c3ccccc23)NC(=O)[C@H](CC(=O)O)NC(=O)[C@H](Cc2ccc(OCC(=O)O)cc2)NC(=O)[C@H](CN)NC(=O)CSC[C@@H](C(=O)N[C@@H](CCN)C(=O)NCCCCCCCCCCC(=O)O)NC(=O)[C@H](Cc2cnc[nH]2)NC(=O)[C@H](C(C)C)NC(=O)[C@H](CC2CCCCC2)NC(=O)[C@H](CCN)NC(=O)[C@@H](CC(C)C)NC(=O)[C@H](CCCN)NC(=O)[C@H](C(C)C)NC(=O)[C@H](Cc2ccc(-c3ccccc3)cc2)NC1=O` [Compound 3688] ({CH2CO}-[Dap]Y(Carboxymethyl)DWL[Bip]V[Orn][dL][Dab][Cha]VHC[Dab][Aun]-OH; thioether N-14): the IC50 worked out at 17.3 nM. For `CC(C)C[C@@H]1NC(=O)[C@H](Cc2c[nH]c3ccccc23)NC(=O)[C@H](CC(=O)O)NC(=O)[C@H](Cc2ccc(OCC(=O)O)cc2)NC(=O)[C@H](CN)NC(=O)CSC[C@@H](C(=O)N[C@@H](CCN)C(=O)NCCCCCCCCCCC(=O)O)NC(=O)[C@H](Cc2cnc[nH]2)NC(=O)[C@H](C(C)O)NC(=O)[C@H](CC2CCCCC2)NC(=O)[C@H](CCN)NC(=O)[C@@H](CC(C)C)NC(=O)[C@H](CCCN)NC(=O)[C@H](C(C)C)NC(=O)[C@H](Cc2ccc(-c3ccccc3)cc2)NC1=O` (stereo partly drawn) [Compound 3689] ({CH2CO}-[Dap]Y(Carboxymethyl)DWL[Bip]V[Orn][dL][Dab][Cha][Thr(3ξ)]HC[Dab][Aun]-OH; thioether N-14), the IC50 was determined as 29.9 nM.

`CC(C)C[C@@H]1NC(=O)[C@H](Cc2c[nH]c3ccccc23)NC(=O)[C@H](CC(=O)O)NC(=O)[C@H](Cc2ccc(OCC(=O)O)cc2)NC(=O)[C@H](C(C)O)NC(=O)CSC[C@@H](C(=O)N[C@@H](CCN)C(=O)NCCCCCCCCCCC(=O)O)NC(=O)[C@H](Cc2cnc[nH]2)NC(=O)[C@H](C(C)O)NC(=O)[C@H](CC2CCCCC2)NC(=O)[C@H](CCN)NC(=O)[C@@H](CC(C)C)NC(=O)[C@H](CCCN)NC(=O)[C@H](C(C)C)NC(=O)[C@H](Cc2ccc(-c3ccccc3)cc2)NC1=O` (stereo partly drawn) [Compound 3690] ({CH2CO}-[Thr(3ξ)]Y(Carboxymethyl)DWL[Bip]V[Orn][dL][Dab][Cha][Thr(3ξ)]HC[Dab][Aun]-OH; thioether N-14): the IC50 was found to be 38.8 nM.

Turning to `CC(C)C[C@@H]1NC(=O)[C@H](Cc2c[nH]c3ccccc23)NC(=O)[C@H](CC(=O)O)NC(=O)[C@H](Cc2ccc(OCC(=O)O)cc2)NC(=O)[C@H](C(C)O)NC(=O)CSC[C@@H](C(=O)NCCOCCOCC(=O)NCCCCCCCCCCC(=O)O)NC(=O)[C@H](Cc2cnc[nH]2)NC(=O)[C@H](C(C)O)NC(=O)[C@H](CC2CCCCC2)NC(=O)[C@H](CCN)NC(=O)[C@@H](CC(C)C)NC(=O)[C@H](CCCN)NC(=O)[C@H](C(C)C)NC(=O)[C@H](Cc2ccc(-c3ccccc3)cc2)NC1=O` (stereo partly drawn) [Compound 3691] ({CH2CO}-[Thr(3ξ)]Y(Carboxymethyl)DWL[Bip]V[Orn][dL][Dab][Cha][Thr(3ξ)]HC[AEEA][Aun]-OH; thioether N-14), the IC50 came to 71.3 nM. For the molecule `CC(C)C[C@@H]1NC(=O)[C@H](Cc2c[nH]c3ccccc23)NC(=O)[C@H](CC(=O)O)NC(=O)[C@H](Cc2ccc(OCC(=O)O)cc2)NC(=O)[C@H](CN)NC(=O)CSC[C@@H](C(=O)NCCOCCOCC(=O)NCCCCCCCCCCC(=O)O)NC(=O)[C@H](Cc2cnc[nH]2)NC(=O)[C@H](C(C)O)NC(=O)[C@H](CC2CCCCC2)NC(=O)[C@H](CCN)NC(=O)[C@@H](CC(C)C)NC(=O)[C@H](CCCN)NC(=O)[C@H](C(C)C)NC(=O)[C@H](Cc2ccc(-c3ccccc3)cc2)NC1=O` (stereo partly drawn) [Compound 3692] ({CH2CO}-[Dap]Y(Carboxymethyl)DWL[Bip]V[Orn][dL][Dab][Cha][Thr(3ξ)]HC[AEEA][Aun]-OH; thioether N-14), the IC50 turned out to be 58.4 nM.

Take `CC(C)C[C@@H]1NC(=O)[C@H](Cc2c[nH]c3ccccc23)NC(=O)[C@H](CC(=O)O)NC(=O)[C@H](Cc2ccc(OCC(=O)O)cc2)NC(=O)[C@H](CN)NC(=O)CSC[C@@H](C(=O)N[C@@H](CCN)C(=O)NCCCCCCCCCCC(=O)O)NC(=O)[C@H](CCCCN)NC(=O)[C@H](C(C)O)NC(=O)[C@H](CC2CCCCC2)NC(=O)[C@H](CCN)NC(=O)[C@@H](CC(C)C)NC(=O)[C@H](CCCN)NC(=O)[C@H](Cc2ccc(O)cc2)NC(=O)[C@H](Cc2ccc(-c3ccccc3)cc2)NC1=O` (stereo partly drawn) [Compound 3693] ({CH2CO}-[Dap]Y(Carboxymethyl)DWL[Bip]Y[Orn][dL][Dab][Cha][Thr(3ξ)]KC[Dab][Aun]-OH; thioether N-14): the IC50 was 59.8 nM. To `CC(C)C[C@@H]1NC(=O)[C@H](Cc2c[nH]c3ccccc23)NC(=O)[C@H](CC(=O)O)NC(=O)[C@H](Cc2ccc(OCC(=O)O)cc2)NC(=O)[C@H](C(C)O)NC(=O)CSC[C@@H](C(=O)N[C@@H](CCN)C(=O)NCCCCCCCCCCC(=O)O)NC(=O)[C@H](CCCCN)NC(=O)[C@H](C(C)O)NC(=O)[C@H](CC2CCCCC2)NC(=O)[C@H](CCN)NC(=O)[C@@H](CC(C)C)NC(=O)[C@H](CCCN)NC(=O)[C@H](Cc2ccc(O)cc2)NC(=O)[C@H](Cc2ccc(-c3ccccc3)cc2)NC1=O` (stereo partly drawn) [Compound 3694] ({CH2CO}-[Thr(3ξ)]Y(Carboxymethyl)DWL[Bip]Y[Orn][dL][Dab][Cha][Thr(3ξ)]KC[Dab][Aun]-OH; thioether N-14) belongs 72.8 nM; to `CC(C)C[C@H]1NC(=O)[C@H](CCCN)NC(=O)[C@H](Cc2ccc(O)cc2)NC(=O)[C@H](Cc2ccc(-c3ccccc3)cc2)NC(=O)[C@H](Cc2ccc(O)cc2)NC(=O)[C@H](Cc2c[nH]c3ccccc23)NC(=O)[C@H](CC(=O)O)NC(=O)[C@H](Cc2ccc(OCC(=O)O)cc2)NC(=O)[C@H](C(C)O)NC(=O)CSC[C@@H](C(=O)N[C@@H](CCN)C(=O)NCCCCCCCCCCC(=O)O)NC(=O)[C@H](CN)NC(=O)[C@H](C(C)O)NC(=O)[C@H](CC2CCCCC2)NC(=O)[C@H](Cc2cnc[nH]2)NC1=O` (stereo partly drawn) [Compound 3695] ({CH2CO}-[Thr(3ξ)]Y(Carboxymethyl)DWY[Bip]Y[Orn][dL]H[Cha][Thr(3ξ)][Dap]C[Dab][Aun]-OH; thioether N-14), 629 nM; to `Cc1cccc(C[C@@H]2NC(=O)[C@H](CC(=O)O)NC(=O)[C@H](Cc3ccc(OCC(=O)O)cc3)NC(=O)[C@H](CN)NC(=O)CSC[C@@H](C(=O)N[C@@H](CCN)C(=O)NCCCCCCCCCCC(=O)O)NC(=O)[C@H](CO)NC(=O)[C@H](Cc3cnc[nH]3)NC(=O)[C@H](CC3CCCCC3)NC(=O)[C@H](CCN)NC(=O)[C@@H](CC(C)C)NC(=O)[C@H](CCCN)NC(=O)[C@H](Cc3ccc(OCC(=O)O)cc3)NC(=O)[C@H](Cc3ccc(-c4ccccc4)cc3)NC(=O)[C@H](Cc3ccc(OCC(=O)O)cc3)NC2=O)c1` [Compound 3696] ({CH2CO}-[Dap]Y(Carboxymethyl)D[Phe(3-Me)]Y(Carboxymethyl)[Bip]Y(Carboxymethyl)[Orn][dL][Dab][Cha]HSC[Dab][Aun]-OH; thioether N-14), 15.1 nM. Regarding `Cc1cccc(C[C@@H]2NC(=O)[C@H](CC(=O)O)NC(=O)[C@H](Cc3ccc(OCC(=O)O)cc3)NC(=O)[C@H](C(C)O)NC(=O)CSC[C@@H](C(=O)N[C@@H](CCN)C(=O)NCCCCCCCCCCC(=O)O)NC(=O)[C@H](CO)NC(=O)[C@H](Cc3cnc[nH]3)NC(=O)[C@H](CC3CCCCC3)NC(=O)[C@H](CCN)NC(=O)[C@@H](CC(C)C)NC(=O)[C@H](CCCN)NC(=O)[C@H](Cc3ccc(OCC(=O)O)cc3)NC(=O)[C@H](Cc3ccc(-c4ccccc4)cc3)NC(=O)[C@H](Cc3ccc(OCC(=O)O)cc3)NC2=O)c1` (stereo partly drawn) [Compound 3697] ({CH2CO}-[Thr(3ξ)]Y(Carboxymethyl)D[Phe(3-Me)]Y(Carboxymethyl)[Bip]Y(Carboxymethyl)[Orn][dL][Dab][Cha]HSC[Dab][Aun]-OH; thioether N-14), the IC50 was determined as 11.2 nM. Consider `Cc1cccc(C[C@@H]2NC(=O)[C@H](CC(=O)O)NC(=O)[C@H](Cc3ccc(OCC(=O)O)cc3)NC(=O)[C@H](CCN)NC(=O)CSC[C@@H](C(=O)N[C@@H](CCN)C(=O)NCCCCCCCCCCC(=O)O)NC(=O)[C@H](CO)NC(=O)[C@H](C(C)(C)O)NC(=O)[C@H](CC3CCCCC3)NC(=O)[C@H](CCN)NC(=O)[C@@H](CC(C)C)NC(=O)[C@H](CCCN)NC(=O)[C@H](Cc3ccc(C(N)=O)cc3)NC(=O)[C@H](Cc3ccc(-c4ccccc4)cc3)NC(=O)[C@H](Cc3ccc(C(N)=O)cc3)NC2=O)c1` [Compound 3698] ({CH2CO}-[Dab]Y(Carboxymethyl)D[Phe(3-Me)][Phe(4-CONH2)][Bip][Phe(4-CONH2)][Orn][dL][Dab][Cha][Val(3-OH)]SC[Dab][Aun]-OH; thioether N-14), for which the IC50 worked out at 15.6 nM. To `CC(C)C[C@H]1NC(=O)[C@H](CCCN)NC(=O)[C@H](Cc2ccc(O)cc2)NC(=O)[C@H](Cc2ccc(-c3ccccc3)cc2)NC(=O)[C@H](CCCCNC(=O)C(C)(C)C)NC(=O)[C@H](Cc2c[nH]c3ccccc23)NC(=O)[C@H](CC(=O)O)NC(=O)[C@H](Cc2ccc(OCC(=O)O)cc2)NC(=O)[C@H](C(C)O)NC(=O)CSC[C@@H](C(=O)NCCOCCOCC(=O)NCCCCCCCCCCC(=O)O)NC(=O)[C@H](CO)NC(=O)[C@H](Cc2cnc[nH]2)NC(=O)[C@H](CC2CCCCC2)NC(=O)[C@H](CCN)NC1=O` (stereo partly drawn) [Compound 3699] ({CH2CO}-[Thr(3ξ)]Y(Carboxymethyl)DWK(Piv)[Bip]Y[Orn][dL][Dab][Cha]HSC[AEEA][Aun]-OH; thioether N-14) belongs 96.9 nM.
